# Data reported in the supplement of paper PMC10331698.
# ± gives the standard deviation of the averaged measurements.
# Legend:
# Assay in all cases: level (log10 ratio to DMSO vehicle control); higher = higher biomarker level / cell amount than vehicle control
# Conditions in all cases: in DMSO
# [1] = compound: OCC(F)(F)C(F)(F)C(F)(F)C(F)(F)C(F)(F)C(F)(F)F [6:1 Fluorotelomer alcohol]
# Method: (§1)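 BioMAP Diversity Plus panel of 12 human primary cell co-culture systems (3C, 4H, LPS, SAg, BT, BF4T, BE3C, CASM3C, HDF3CGF, KF3CT, MyoF, Mphg). Compounds were added 1 h before stimulation and left for 24 h (MyoF 48 h; BT 72 h for soluble read-outs or 6 d for IgG). Biomarkers were read by ELISA, cytotoxicity by SRB, PBMC viability and proliferation by Alamar Blue. Each well value was divided by the mean of 8 DMSO control wells on the same plate and log10 transformed; duplicate blinded samples were tested at 4 concentrations.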
# [2] = compound: O=P(O)(O)CCC(F)(F)C(F)(F)C(F)(F)C(F)(F)C(F)(F)C(F)(F)F [2-(Perfluorohexyl)ethylphosphonic acid]
# Method: as §1
# [3] = compound: O=S(=O)(O)CCC(F)(F)C(F)(F)C(F)(F)C(F)(F)F [4:2 Fluorotelomer sulfonic acid]
# Method: as §1
# [4] = compound: OCCCCC(F)(F)C(F)(F)C(F)(F)C(F)(F)F [4:4 Fluorotelomer alcohol]
# Method: as §1
# Perfluorooctanoic acid = compound: O=C(O)C(F)(F)C(F)(F)C(F)(F)C(F)(F)C(F)(F)C(F)(F)C(F)(F)F [Perfluorooctanoic acid]
# Method: as §1
# [5] = compound: C=CC(=O)OCCC(F)(F)C(F)(F)C(F)(F)C(F)(F)C(F)(F)C(F)(F)C(F)(F)C(F)(F)F [8:2 Fluorotelomer acrylate]
# Method: as §1
Test System,level (log10) ([1]; 6700 nM),level (log10) ([1]; 20000 nM),level (log10) ([1]; 60000 nM),level (log10) ([2]; 6700 nM),level (log10) ([2]; 20000 nM),level (log10) ([2]; 60000 nM),level (log10) ([3]; 6700 nM),level (log10) ([3]; 20000 nM),level (log10) ([3]; 60000 nM),level (log10) ([4]; 6700 nM),level (log10) ([4]; 20000 nM),level (log10) ([4]; 60000 nM),level (log10) (Perfluorooctanoic acid; 6700 nM),level (log10) (Perfluorooctanoic acid; 20000 nM),level (log10) (Perfluorooctanoic acid; 60000 nM),level (log10) ([5]; 6700 nM),level (log10) ([5]; 20000 nM),level (log10) ([5]; 60000 nM)
3C:CD87/uPAR,-0.021,-0.01 ± 0.042,0 ± 0.0085,0.0365 ± 0.03,0.0125 ± 0.00071,-0.0385 ± 0.0092,-0.05 ± 0.047,-0.017 ± 0.069,0.002 ± 0.058,-0.018 ± 0.057,-0.0155 ± 0.005,0.012 ± 0.0014,-0.0005 ± 0.0021,-0.0035 ± 0.005,-0.0425 ± 0.0021,0.007 ± 0.027,-0.0065 ± 0.025,-0.0025 ± 0.036
3C:CXCL8/IL-8,-0.0095 ± 0.013,0.0145 ± 0.011,0.055 ± 0.057,-0.0115 ± 0.05,-0.0035 ± 0.0021,0.0545 ± 0.03,-0.0175 ± 0.04,-0.011 ± 0.072,0.035 ± 0.1,-0.029 ± 0.0085,-0.031 ± 0.0057,0.0005 ± 0.0078,0.0295 ± 0.035,0.0585 ± 0.026,0.154 ± 0.0057,0.009 ± 0.0057,0.012 ± 0.035,0.0555 ± 0.049
3C:CXCL9/MIG,0.0065 ± 0.0035,0.0065 ± 0.0035,0.019,-0.004 ± 0.0071,-0.003 ± 0.0014,0.01 ± 0.025,-0.0005 ± 0.005,0.005 ± 0.011,0.001 ± 0.014,0.0075 ± 0.0035,-0.01 ± 0.0014,0.007 ± 0.0028,0.001 ± 0.021,0.0095 ± 0.023,0.0265 ± 0.022,-0.0135 ± 0.011,-0.005 ± 0.0042,0.01 ± 0.018
3C:HLA-DR,0.004 ± 0.011,-0.003 ± 0.0028,-0.0095 ± 0.0078,-0.0055 ± 0.012,-0.0135 ± 0.00071,-0.0085 ± 0.044,-0.019 ± 0.0028,-0.0095 ± 0.0078,-0.005 ± 0.028,-0.002 ± 0.042,-0.0065 ± 0.026,0.006 ± 0.033,0.0035 ± 0.0092,-0.008 ± 0.028,0.0155 ± 0.043,0.009 ± 0.0071,0.0055 ± 0.013,0.0175 ± 0.029
3C:Proliferation,-0.0285 ± 0.0092,-0.0325 ± 0.0064,-0.685 ± 0.77,-0.066 ± 0.057,-0.035 ± 0.017,-0.101 ± 0.081,0.0045 ± 0.083,0.0155 ± 0.013,0.003 ± 0.0085,-0.018 ± 0.031,0.0115 ± 0.011,-0.009 ± 0.054,-0.0155 ± 0.015,-0.003 ± 0.0099,-0.08 ± 0.02,-0.035 ± 0.037,-0.009 ± 0.048,-0.0155 ± 0.005
3C:SRB,-0.0045 ± 0.0092,-0.0025 ± 0.012,-0.21 ± 0.3,0.0015 ± 0.032,0.0085 ± 0.015,-0.006 ± 0.028,-0.0135 ± 0.011,-0.0145 ± 0.0078,-0.0255 ± 0.025,-0.0075 ± 0.025,0.004 ± 0.025,0.0095 ± 0.032,-0.017 ± 0.0042,0.0045 ± 0.019,-0.102 ± 0.044,-0.001 ± 0.03,0.008 ± 0.018,0.0075 ± 0.005
4H:CCL2/MCP-1,-0.005 ± 0.0071,-0.0135 ± 0.0035,0.002 ± 0.042,-0.0295 ± 0.0092,-0.031 ± 0.025,-0.0215 ± 0.054,0.014 ± 0.0014,-0.0085 ± 0.028,0.019 ± 0.0071,0.0135 ± 0.011,-0.016 ± 0.023,0.023 ± 0.055,-0.028 ± 0.0071,-0.0395 ± 0.013,-0.0555 ± 0.054,-0.025 ± 0.018,-0.016 ± 0.023,0.012 ± 0.051
4H:CCL26/Eotaxin-3,0.01 ± 0.0085,0.012 ± 0.018,-0.003 ± 0.025,-0.052 ± 0.09,-0.0765 ± 0.066,0 ± 0.018,-0.084 ± 0.042,-0.004 ± 0.037,0.0225 ± 0.037,-0.017 ± 0.021,-0.0345 ± 0.0021,-0.025 ± 0.011,0.0215 ± 0.087,-0.022 ± 0.12,-0.0255 ± 0.14,0.0235 ± 0.0021,-0.012 ± 0.018,0.01 ± 0.048
4H:CD62P/P-selectin,-0.023 ± 0.038,-0.0435 ± 0.029,-0.182 ± 0.079,0.022 ± 0.0042,-0.01 ± 0.017,-0.0585 ± 0.021,-0.045 ± 0.075,-0.0285 ± 0.059,0.005 ± 0.073,0.023 ± 0.0028,0.019 ± 0.013,0.0115 ± 0.005,-0.005 ± 0.013,0.001 ± 0.0014,0.05 ± 0.02,-0.018 ± 0.0028,-0.092 ± 0.0028,-0.047 ± 0.064
4H:CD87/uPAR,-0.0195 ± 0.018,0.029 ± 0.011,-0.175 ± 0.36,-0.0345 ± 0.018,-0.0165 ± 0.015,-0.0495 ± 0.011,0.0185 ± 0.0078,0.003 ± 0.0085,-0.031 ± 0.024,-0.0385 ± 0.029,-0.044 ± 0.021,-0.0195 ± 0.013,-0.0695 ± 0.053,-0.0395 ± 0.1,-0.083 ± 0.048,-0.045 ± 0.051,-0.03 ± 0.011,-0.064 ± 0.069
4H:CD106/VCAM-1,0.0035 ± 0.033,-0.0045 ± 0.049,0.0195 ± 0.0078,0.0205 ± 0.0064,0.025 ± 0.0085,-0.01 ± 0.0028,-0.039 ± 0.037,0.014 ± 0.0057,-0.0035 ± 0.023,0 ± 0.0057,-0.01 ± 0.0028,0.005 ± 0.0028,0.0045 ± 0.022,-0.001 ± 0.034,-0.0165 ± 0.039,-0.0045 ± 0.035,-0.023 ± 0.051,-0.0255 ± 0.026
4H:SRB,-0.0125 ± 0.005,-0.006 ± 0.0085,-0.002 ± 0.014,-0.005 ± 0.024,-0.0065 ± 0.021,-0.0005 ± 0.032,-0.0035 ± 0.00071,-0.0055 ± 0.005,-0.0035 ± 0.0092,-0.003 ± 0.013,0 ± 0.018,-0.001 ± 0.023,-0.013 ± 0.0071,-0.004 ± 0.023,-0.038 ± 0.031,-0.0045 ± 0.019,-0.0035 ± 0.005,0.01
4H:VEGFR2,0.0035 ± 0.042,-0.005 ± 0.013,0.012 ± 0.023,0.0465 ± 0.015,0.0335 ± 0.0035,-0.002 ± 0.027,-0.103 ± 0.042,-0.0525 ± 0.071,0.025 ± 0.075,-0.0535 ± 0.036,-0.0665 ± 0.005,-0.0205 ± 0.047,0.019 ± 0.0099,0.0055 ± 0.042,0.0205 ± 0.033,0.019 ± 0.024,0.0175 ± 0.026,0.016 ± 0.04
BE3C:CD54/ICAM-1,0.0055 ± 0.019,-0.013 ± 0.016,0.0065 ± 0.0021,-0.01 ± 0.0028,-0.02 ± 0.021,-0.0085 ± 0.03,-0.004 ± 0.0085,-0.009 ± 0.014,-0.0155 ± 0.0021,0.0085 ± 0.015,-0.0025 ± 0.023,-0.0045 ± 0.0064,-0.02 ± 0.0085,-0.0085 ± 0.0035,0.0235 ± 0.039,-0.016,0 ± 0.0014,0.019 ± 0.04
BE3C:CD87/uPAR,0.007 ± 0.017,-0.0075 ± 0.0078,0.0105 ± 0.035,-0.035 ± 0.065,-0.029 ± 0.047,-0.0125 ± 0.12,0.002 ± 0.02,-0.004 ± 0.021,-0.007 ± 0.0071,0.0075 ± 0.03,-0.025 ± 0.016,0.0065 ± 0.033,-0.039 ± 0.057,-0.028 ± 0.072,0.0245 ± 0.023,0.03 ± 0.041,0.027 ± 0.035,0.0595 ± 0.049
BE3C:CXCL8/IL-8,0.004 ± 0.017,-0.0125 ± 0.042,-0.0075 ± 0.0064,-0.064 ± 0.017,-0.0635 ± 0.0064,-0.0555 ± 0.06,0.0165 ± 0.023,-0.009 ± 0.0085,0.0175 ± 0.0064,-0.013 ± 0.016,-0.0155 ± 0.0021,0.029 ± 0.04,-0.029 ± 0.055,-0.0165 ± 0.057,-0.0385 ± 0.0035,-0.019 ± 0.027,-0.013 ± 0.033,0.043 ± 0.021
